Source: patent US10519177B2, “Heterocyclic compounds and uses thereof” (Plexxikon Inc., priority 2013, dated 2019)

Target: BRD4-BD1 (44-164) (Homo sapiens (Human), UniProt O60885)
Assay: Alphascreen binding assay BRD4-BD1
Conditions: BRD4(1) H4; read-out: Biochemical activity (IC50 μM) BRD4(1) H4
Method: Binding of compounds of formula (I) with bromodomain 2, 3 4 was assessed using Alphascreen binding assay. The inhibition of the interaction between bromodomain and its acetylated target protein (Filippakopoulos P et al. 2012) was measured quantitatively using recombinant BRD proteins, an acetylated Histone 4 peptide and AlphaScreen™ technology. In absence of inhibition the BRD protein bound to AlphaScreen™ nickel chelate acceptor beads can interact with the acetylated Histone 4 peptide which is immobilized by the AlphaScreen™ Streptavidin coated beads. This interaction brings donor and acceptor beads in proximity. The close proximity allows the singlet oxygen produced by laser excitation of the donor beads to reach the acceptor beads and generate a luminescence signal.
Recombinant human bromodomains containing the N-terminal bromodomain (BRD2-BD1 (71-194), BRD3-BD1 (24-144) and BRD4-BD1 (44-164)) or dual bromodomains (BRD4-BD12 (1-477), BRD4-BD12 (1-472)) were prepared and purified as described in protein expression and purification session. The peptide is human Histone H41-21K5AcK8AcK12AcK16Ac-Biotin (Anaspec CA, USA).
Protocol for BRD2, BRD3 and BRD4 assay: All components are prepared in buffer composed of 50 mM HEPES pH 7.5, 100 mM NaCl, 0.01% bovine serum albumin (“BSA”), 0.01% Triton X-100, 2 mM dithiothreitol (“DTT”). 7 μL of Bromodomain protein and 7 μL of peptide are added to wells containing 1 μL of various concentrations of test compounds of formula (I) or DMSO vehicle in an Alphaplate (PerkinElmer GA, USA) and incubated for 1 hour at room temperature. 4 μL donor and acceptor bead mixture is then added with final concentrations of 7.5 μg/ml. 30 minutes after bead addition, Alpha signal is read on the Envision spectrometer (λEx 680 nm, λEm 520-620 nm). Final concentrations of bromodomain proteins and peptide are as shown below.
All data was normalized to the mean of 16 high and 16 low control wells on each plate. A four parameter curve fit of the following formula was then applied: Y=a+(b−a)/(1+(x/c)^d) Where ‘a’ is the minimum, ‘b’ is the maximum, ‘c’ is the pIC50 and ‘d’ is the Hill slope. Protein Expression and Purification
Recombinant human bromodomains containing the N-terminal bromodomain (BRD2-BD1 (71-194), BRD3-BD1 (24-144) and BRD4-BD1 (44-164)) or dual bromodomains (BRD4-BD12 (1-477), BRD4-BD12 (1-472)) were expressed in E. coli cells (in a modified pET vector) with an N-terminal six-His tag and purified using a combination of both IMAC (Ni-affinity) and size exclusion chromatography steps.
Recombinant BRD proteins were expressed using the E. coli strain BL21-CodonPlus (DE3) (Agilent Technologies CA, USA). Cells were grown in Terrific Broth (TB) media to an OD600 of 1.2 at 37° C. at which temperature was reduced to 25° C., protein was induced with 1.0 mM ispropyl-β-D-thiogalactopyranoside (“IPTG”) for 12-18 hours and harvested by centrifugation at 8000×g for 20 minutes. Cells were re-suspended in 0.1M K2PO4 pH 8.0, 250 mM NaCl, 10% Glycerol, 0.75% NP-40, 25 mM Imidazole, 5 mM beta-mercaptoethanol (“BME”) with 0.2 mg/ml Lysosyme, 2.0 mM phenylmethanesulfonyl fluoride (“PMSF”), 25 μg/ml DNAse I, incubated on ice for 30 minutes and lyzed with a cell disruptor (MicroFluidics MA, USA). The lysate was clarified by centrifugation at 20,000×g for 2 hours. The protein was captured with Ni-NTA resin (Life Technologies, USA). Contaminating proteins were washed off with 25 mM Tris-HCl pH 8.3, 250 mM NaCl, 12% Glycerol and 50 mM Imidazole. Following 3× wash steps, protein was eluted step wise using a 50 mM HEPES pH 7.5, 500 mM NaCl and 400 mM Imidazole. The protein was further purified using Gel Filtration column 26/600 Superdex 200 (GE Biosciences NJ, USA) in 50 mM HEPES pH 7.5, 250 mM NaCl. The protein was aliquoted and flash-frozen in liquid Nitrogen.

SMILES: Cc1noc(C)c1-c1cnc2c(C#CCO)cn(S(=O)(=O)c3ccccc3)c2c1 [P-0155, 3-[1-(benzenesulfonyl)-6-(3,5-dimethylisoxazol-4-yl)pyrrolo[3,2-b]pyridin-3-yl]prop-2-yn-1-ol]
- IC50: < 1 µM

SMILES: Cc1noc(C)c1-c1cnc2c(-c3cnn(C(F)F)c3)cn(CC3CCC(F)(F)CC3)c2c1 [P-0210, 4-[1-[(4,4-difluorocyclohexyl)methyl]-3-[1-(difluoromethyl)pyrazol-4-yl]pyrrolo[3,2-b]pyridin-6-yl]-3,5-dimethyl-isoxazole]
- IC50: < 1 µM

SMILES: Cc1noc(C)c1-c1cnc2c(-c3ccccc3)cn(S(=O)(=O)c3ccccc3)c2c1 [P-0077, 4-[1-(benzenesulfonyl)-3-phenyl-pyrrolo[3,2-b]pyridin-6-yl]-3,5-dimethyl-isoxazole]
- IC50: < 1 µM

SMILES: Cc1noc(C)c1-c1cnc2[nH]cc(Cc3c(F)cccc3Cl)c2c1 [P-0027, 4-[3-[(2-chloro-6-fluoro-phenyl)methyl]-1H-pyrrolo[2,3-b]pyridin-5-yl]-3,5-dimethyl-isoxazole]
- IC50: < 1 µM

SMILES: COc1ncc(-c2cn(S(=O)(=O)C3CCCC3)c3cc(-c4c(C)noc4C)cnc23)cn1 [P-0105, 4-[1-cyclopentylsulfonyl-3-(2-methoxypyrimidin-5-yl)pyrrolo[3,2-b]pyridin-6-yl]-3,5-dimethyl-isoxazole]
- IC50: < 1 µM

SMILES: Cc1noc(C)c1-c1cnc2c(-c3cnn(C)c3)cn(S(=O)(=O)c3cccc(F)c3)c2c1 [P-0122, 4-[1-(3-fluorophenyl)sulfonyl-3-(1-methyl-pyrazol-4-yl)pyrrolo[3,2-b]pyridin-6-yl]-3,5-dimethyl-isoxazole]
- IC50: < 1 µM

SMILES: CC(=O)N1CCC(Cc2cn(C)c3ncc(-c4c(C)noc4C)cc23)CC1 [P-0120, 1-[4-[[5-(3,5-dimethylisoxazol-4-yl)-1-methyl-pyrrolo[2,3-b]pyridin-3-yl]methyl]-1-piperidyl]ethanone]
- IC50: < 1 µM

SMILES: Cc1nn(C)cc1-c1cn(C(C)c2ccccc2)c2cc(-c3c(C)noc3C)cnc12 (stereo not drawn) [P-0205, 4-[3-(1,3-dimethylpyrazol-4-yl)-1-(1-phenylethyl)pyrrolo[3,2-b]pyridin-6-yl]-3,5-dimethyl-isoxazole]
- IC50: < 1 µM

SMILES: Cc1noc(C)c1-c1cnc2c(-c3cnn(C)c3)cn(Cc3ccccc3C(F)(F)F)c2c1 [P-0188, 3,5-dimethyl-4-[3-(1-methylpyrazol-4-yl)-1-[[2-(trifluoromethyl)phenyl]methyl]pyrrolo[3,2-b]pyridin-6-yl]isoxazole]
- IC50: < 1 µM

SMILES: Cc1noc(C)c1-c1cnc2[nH]cc(Cc3cccnc3)c2c1 [P-0003, 3,5-dimethyl-4-[3-(3-pyridylmethyl)-1H-pyrrolo[2,3-b]pyridin-5-yl]isoxazole]
- IC50: < 1 µM

SMILES: CCCS(=O)(=O)n1cc(-c2cnn(C)c2)c2ncc(-c3c(C)noc3C)cc21 [P-0111, 3,5-dimethyl-4-[3-(1-methylpyrazol-4-yl)-1-propylsulfonyl-pyrrolo[3,2-b]pyridin-6-yl]isoxazole]
- IC50: < 1 µM

SMILES: CCn1cc(-c2cn(C(C)c3ccccc3)c3cc(-c4c(C)noc4C)cnc23)cn1 (stereo not drawn) [P-0200, 4-[3-(1-ethylpyrazol-4-yl)-1-(1-phenylethyl)pyrrolo[3,2-b]pyridin-6-yl]-3,5-dimethyl-isoxazole]
- IC50: < 1 µM

SMILES: Cc1noc(C)c1-c1cnc2c(-c3cnn(CC(F)(F)F)c3)cn(S(=O)(=O)c3ccccc3)c2c1 [P-0146, 4-[1-(benzenesulfonyl)-3-[1-(2,2,2-trifluoroethyl)pyrazol-4-yl]pyrrolo[3,2-b]pyridin-6-yl]-3,5-dimethyl-isoxazole]
- IC50: < 1 µM

SMILES: Cc1noc(C)c1-c1cnc2[nH]cc(C(c3ccc(F)cc3)C3CC3)c2c1 (stereo not drawn) [P-0064, 4-[3-[cyclopropyl-(4-fluorophenyl)methyl]-1H-pyrrolo[2,3-b]pyridin-5-yl]-3,5-dimethyl-isoxazole]
- IC50: < 1 µM

SMILES: CCc1[nH]c2ncc(-c3c(C)noc3C)cc2c1C(O)c1ccccc1Cl (stereo not drawn) [P-0042, (2-chlorophenyl)-[5-(3,5-dimethylisoxazol-4-yl)-2-ethyl-1H-pyrrolo[2,3-b]pyridin-3-yl]methanol]
- IC50: < 1 µM

SMILES: CCCS(=O)(=O)n1cc(-c2cnn(C(F)F)c2)c2ncc(-c3c(C)noc3C)cc21 [P-0135, 4-[3-[1-(difluoro-methyl)pyrazol-4-yl]-1-propylsulfonyl-pyrrolo[3,2-b]pyridin-6-yl]-3,5-dimethyl-isoxazole]
- IC50: < 1 µM

SMILES: COC(c1c(F)cccc1Cl)c1c[nH]c2ncc(-c3c(C)noc3C)cc12 (stereo not drawn) [P-0014, 4-[3[(2-chloro-6-fluoro-phenyl)-methoxy-methyl]-1H-pyrrolo[2,3-b]pyridin-5-yl]-3,5-dimethyl-isoxazole]
- IC50: < 1 µM

SMILES: Cc1noc(C)c1-c1cnc2c(-c3cc(C(F)(F)F)n[nH]3)cn(C(C)c3ccccc3)c2c1 (stereo not drawn) [P-0215, 3,5-dimethyl-4-[1-(1-phenylethyl)-3-[3-(trifluoromethyl)-1H-pyrazol-5-yl]pyrrolo[3,2-b]pyridin-6-yl]isoxazole]
- IC50: < 1 µM

SMILES: Cc1noc(C)c1-c1cnc2ccn(C(C)c3ccccc3)c2c1 (stereo not drawn) [P-0159, 3,5-dimethyl-4-[1-(1-phenylethyl)pyrrolo[3,2-b]pyridin-6-yl]isoxazole]
- IC50: < 1 µM

SMILES: C=CCn1cc(-c2cn(S(=O)(=O)C3CC3)c3cc(-c4c(C)noc4C)cnc23)cn1 [P-0139, 4-[3-(1-allylpyrazol-4-yl)-1-cyclopropyl-sulfonyl-pyrrolo[3,2-b]pyridin-6-yl]-3,5-dimethyl-isoxazole]
- IC50: < 1 µM

SMILES: Cc1noc(C)c1-c1cnc2c(I)cn(C(C)c3ccccc3)c2c1 (stereo not drawn) [P-0224, 4-[3-iodo-1-(1-phenylethyl)pyrrolo[3,2-b]pyridin-6-yl]-3,5-dimethyl-isoxazole]
- IC50: < 1 µM

SMILES: Cc1noc(C)c1-c1cnc2c(-c3cnn(C)c3)cn(Cc3cscn3)c2c1 [P-0171, 3,5-dimethyl-4-[3-(1-methylpyrazol-4-yl)-1-(thiazol-4-ylmethyl)pyrrolo[3,2-b]pyridin-6-yl]isoxazole]
- IC50: < 1 µM

SMILES: Cc1noc(C)c1-c1cnc2c(-c3cnn(C)c3)cn(C(CF)c3ccccc3)c2c1 (stereo not drawn) [P-0187, 4-[1-(2-fluoro-1-phenyl-ethyl)-3-(1-methylpyrazol-4-yl)pyrrolo[3,2-b]pyridin-6-yl]-3,5-dimethyl-isoxazole]
- IC50: < 1 µM

SMILES: Cc1noc(C)c1-c1cnc2c(-c3cnn(C(F)F)c3)cn(S(=O)(=O)CCC(F)(F)F)c2c1 [P-0136, 4-[3-[1-(difluoro-methyl)pyrazol-4-yl]-1-(3,3,3-trifluoro-propylsulfonyl)pyrrolo[3,2-b]pyridin-6-yl]-3,5-dimethyl-isoxazole]
- IC50: < 1 µM

SMILES: Cc1noc(C)c1-c1cnc2[nH]cc(C(O)c3cccc(OC(F)(F)F)c3)c2c1 (stereo not drawn) [P-0039, [5-(3,5-dimethylisoxazol-4-yl)-1H-pyrrolo[2,3-b]pyridin-3-yl]-[3-(trifluoromethoxy)phenyl]methanol]
- IC50: < 1 µM

SMILES: Cc1noc(C)c1-c1cnc2[nH]cc(C(O)c3ccccc3OC(F)F)c2c1 (stereo not drawn) [P-0040, [2-(difluoromethoxy)phenyl]-[5-(3,5-dimethylisoxazol-4-yl)-1H-pyrrolo[2,3-b]pyridin-3-yl]methanol]
- IC50: < 1 µM

SMILES: Cc1noc(C)c1-c1cnc2c(-c3cnn(C)c3)cn(C(CC#N)C3CCCC3)c2c1 (stereo not drawn) [P-0197, 3-cyclopentyl-3-[6-(3,5-dimethylisoxazol-4-yl)-3-(1-methylpyrazol-4-yl)pyrrolo[3,2-b]pyridin-1-yl]propanenitrile]
- IC50: < 1 µM
